Among the data in PMC6696238, “Novel Benzothiazole-Based Ureas as 17β-HSD10 Inhibitors, A Potential Alzheimer’s Disease Treatment” (Molecules, 2019) are remaining activity and melting point values, retold here.

Broadly, the melting point is the temperature, or range, at which the solid turns liquid.

In data set [1] the target is T1, 17β-HSD10 (Homo sapiens, UniProt Q99714).
T1 sequence (Q99714 1-261): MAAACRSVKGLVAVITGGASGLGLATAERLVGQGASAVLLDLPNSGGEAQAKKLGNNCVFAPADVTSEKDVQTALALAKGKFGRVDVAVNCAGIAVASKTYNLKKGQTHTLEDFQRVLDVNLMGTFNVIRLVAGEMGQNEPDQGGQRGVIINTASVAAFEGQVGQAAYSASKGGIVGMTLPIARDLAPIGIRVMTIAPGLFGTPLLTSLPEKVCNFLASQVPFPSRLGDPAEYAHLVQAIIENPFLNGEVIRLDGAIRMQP
The experiment in a line: recombinant 17β-HSD10 enzyme activity assay (primary NADH screen and dose response). The class given is biochemical. The arrangement: made in house. The conditions noted are these: relative remaining activity, 25 μM compound, six independent measurements ± SEM; read-out: 17β-HSD10 activity in the presence of compound at 25 μM (Primary Screen). The text has this: In order to reduce attrition rates and improve assay reproducibility we have developed a high throughput screening (HTS) pipeline (Figure 3 [19]). In brief, compounds are screened in the recombinant 17β-HSD10 enzyme activity assay (Table 5, Figure 4). Our best previously published compounds have set the threshold of 40% remaining 17β-HSD10 activity as a minimum standard and if compounds can better this threshold, they are further screened using our orthogonal counter assays, dose response assays and kinetic assessment (Table 5). Finally, if passing these criteria with favourable characteristics, the compounds progress into cellular evaluation through cytotoxicity testing and measuring 17β-HSD10 activity within cells (Table 6).
Full results for the primary nicotinamide adenine dinucleotide (NADH) assay screens are shown in Figure 4 including our four best previously published compounds for comparison (Figure 1).
Purification of 17β-HSD10 protein was performed as described in our previous work.
Compound screening, dose response and mechanism of inhibition experiments were performed as described in Hroch et al. 2016, with the exceptions being an alteration in assay buffer (10 mM Tris HCl (pH 7.4), 150 mM NaCl, 1 mM DTT, 0.005% Tween20, 0.01% BSA) and a change in temperature to 25 °C, to improve enzyme stability and assay reliability as compound solubility improved, as outlined in our previous work.

Compound `COc1ccc2nc(NC(=O)Nc3ccc(O)c(C)c3)sc2c1` [Compound 2, 1-(4-Hydroxy-3-methylphenyl)-3-(6-methoxybenzo[d]thiazol-2-yl)urea] showed a melting point of 262 to 263 °C. In data set [1], the remaining activity at 25 µM amounted to 52.2 ± 3.67%. For `COc1ccc2nc(NC(=O)Nc3ccc(O)c(C(C)(C)C)c3)sc2c1` [Compound 3, 1-(3-(Tert-butyl)-4-hydroxyphenyl)-3-(6-methoxybenzo[d]thiazol-2-yl)urea] the same measures were 259 to 260 °C and 41 ± 0.45%.

`COc1ccc2nc(NC(=O)Nc3ccc(O)c(C#N)c3)sc2c1` [Compound 4, 1-(3-Cyano-4-hydroxyphenyl)-3-(6-methoxybenzo[d]thiazol-2-yl)urea] had a melting point of 277 to 279 °C. In addition, the remaining activity at 25 µM in data set [1] came out at 96.5 ± 2.03%. On to `COc1ccc2nc(NC(=O)Nc3ccc(O)c(N)c3)sc2c1` [Compound 7, 1-(3-Amino-4-hydroxyphenyl)-3-(6-methoxybenzo[d]thiazol-2-yl)urea], for which the melting point was 180 to 181 °C. The remaining activity at 25 µM in data set [1] turned out to be 82.5 ± 2.39%. For `COc1ccc2nc(NC(=O)Nc3ccc(O)nc3)sc2c1` [Compound 8, 1-(6-Hydroxypyridin-3-yl)-3-(6-methoxybenzo[d]thiazol-2-yl)urea], in that order: 272 to 273 °C and 63.3 ± 3.42%.

In the case of `COc1ccc2nc(NC(=O)Nc3ccc(N)cc3)sc2c1` [Compound 9, 1-(4-Aminophenyl)-3-(6-methoxybenzo[d]thiazol-2-yl)urea], the melting point is 304 to 306 °C (dec.). The remaining activity at 25 µM in data set [1] was found to be 105 ± 3.17%. For `COc1ccc2nc(NC(=O)Nc3ccc(N)c(Cl)c3)sc2c1` [Compound 10, 1-(4-Amino-3-chlorophenyl)-3-(6-methoxybenzo[d]thiazol-2-yl)urea], in that order: 310 to 311 °C (dec.) and 117 ± 3.94%.

Turning to `COc1ccc2nc(NC(=O)Nc3ccc(CO)c(Cl)c3)sc2c1` [Compound 11, 1-(3-Chloro-4-(hydroxymethyl)phenyl)-3-(6-methoxybenzo[d]thiazol-2-yl)urea], the melting point lay in the range of 229 to 230 °C. In data set [1], the remaining activity at 25 µM worked out at 110 ± 3.8%.

Compound `Oc1ccc(Nc2nc3ccc(Cl)cc3s2)cc1Cl` [Compound 23, 2-Chloro-4-((6-chlorobenzo[d]thiazol-2-yl)amino)phenol] displayed a melting point of 213 to 214.5 °C. In data set [1], the remaining activity at 25 µM is 120 ± 13.5%. As to `COc1ccc2nc(NC(=O)c3ccc(O)c(Cl)c3)sc2c1` [Compound 26], the remaining activity at 25 µM in data set [1] came to 105 ± 4.99%.

With `COc1ccc2nc(NC(=O)NCc3ccc(O)c(Cl)c3)sc2c1` [Compound 28, 1-(3-Chloro-4-hydroxybenzyl)-3-(6-methoxybenzo[d]thiazol-2-yl)urea], the melting point lay within 249 to 251 °C. For the same compound, in data set [1], the remaining activity at 25 µM amounted to 101 ± 4.6%. For `COc1ccc2nc(NC(=O)NCc3ccc(O)c(O)c3)sc2c1` [Compound 29, 1-(3,4-Dihydroxybenzyl)-3-(6-methoxybenzo[d]thiazol-2-yl)urea], in that order: 141.5 to 142 °C and 63.5 ± 2.58%.

For the compound `COc1ccc2nc(NC(c3ccc(F)cc3)P(=O)(OC)OC)sc2c1` (stereo not drawn) [Compound 34, Dimethyl ((4-fluorophenyl)((6-methoxybenzo[d]thiazol-2-yl)amino)methyl) phosphonate, reference compound], in data set [1], the remaining activity at 25 µM amounted to 95.4 ± 1.16%. On the same count and under the same terms, next, `COc1ccc2nc(NC(c3ccc(O)cc3)P(=O)(OC)OC)sc2c1` (stereo not drawn) [Compound 35, Dimethyl ((4-hydroxyphenyl)((6-methoxybenzo[d]thiazol-2-yl)amino)methyl) phosphonate, reference compound]: 96.6 ± 1.35%. Same read-out and setting: next, `COC(=O)c1cc(C(Nc2nc3ccc(OC)cc3s2)P(=O)(OC)OC)ccc1O` (stereo not drawn) [Compound 36, Methyl 5-((dimethoxyphosphoryl)((6-methoxybenzo[d]thiazol-2-yl)amino)methyl)-2-hydroxybenzoate, reference compound]: 95.9 ± 2.09%.

The compound `COc1ccc2nc(NC(c3ccc(O)c(Cl)c3)P(=O)(OC)OC)sc2c1` (stereo not drawn) [Compound 37, Dimethyl ((3-chloro-4-hydroxyphenyl)((6-methoxybenzo[d]thiazol-2-yl)amino)methyl) phosphonate] had a melting point of 198 to 199 °C. Moreover, the remaining activity at 25 µM in data set [1] is 97.83 ± 0.88%. For `CN(C(=O)Nc1ccc(O)c(Cl)c1)c1nc2ccccc2s1` [Compound 41, 1-(Benzo[d]thiazol-2-yl)-3-(3-chloro-4-hydroxyphenyl)-1-methylurea] the same measures were 171 to 172 °C and 106 ± 20.9%. `CN(C(=O)Nc1nc2ccccc2s1)c1ccc(O)c(Cl)c1` [Compound 45, 3-(Benzo[d]thiazol-2-yl)-1-(3-chloro-4-hydroxyphenyl)-1-methylurea]: the melting point lay within 139 to 141 °C. Moreover, in data set [1], the remaining activity at 25 µM is 77.3 ± 1.43%. For `COc1ccc2nc(NC(=O)N(C)c3ccc(O)c(Cl)c3)sc2c1` [Compound 46, 1-(3-Chloro-4-hydroxyphenyl)-3-(6-methoxybenzo[d]thiazol-2-yl)-1-methylurea] the same measures were 220 °C (dec.) and 97.8 ± 1.32%. For `CN(C(=O)N(C)c1nc2ccccc2s1)c1ccc(O)c(Cl)c1` [Compound 49, 1-(Benzo[d]thiazol-2-yl)-3-(3-chloro-4-hydroxyphenyl)-1,3-dimethylurea] the same measures were 227 to 228.5 °C and 105 ± 2.21%.

Compound `O=C(Nc1ccc(O)c(Cl)c1)Nc1nc2c(s1)CCCC2` [Compound 71, 1-(3-Chloro-4-hydroxyphenyl)-3-(4,5,6,7-tetrahydrobenzo[d]thiazol-2-yl)urea] displayed a melting point of 258 to 260 °C. For the same compound, the remaining activity at 25 µM in data set [1] worked out at 55.8 ± 1.54%.

`O=C(Nc1ccc(O)c(Cl)c1)NC1Cc2ccccc2C1` [Compound 72, 1-(3-Chloro-4-hydroxyphenyl)-3-(2,3-dihydro-1H-inden-2-yl)urea] showed a melting point of 203 to 205 °C. The remaining activity at 25 µM in data set [1] was 79.2 ± 2.56%. For `O=C(Nc1ccc(O)c(Cl)c1)Nc1nc(-c2ccc(Cl)cc2)cs1` [Compound 73, 1-(3-Chloro-4-hydroxyphenyl)-3-(4-(4-chlorophenyl)thiazol-2-yl)urea], in that order: 206 to 208 °C and 102 ± 3.65%. The compound `O=C(Nc1ccc(O)c(Cl)c1)Nc1nccs1` [Compound 74, 1-(3-Chloro-4-hydroxyphenyl)-3-(thiazol-2-yl)urea] showed a melting point of 220 to 222 °C. The remaining activity at 25 µM in data set [1] was determined as 74.5 ± 0.63%. For `COc1ccc(CCNC(=O)Nc2ccc(O)c(Cl)c2)cc1` [Compound 75, 1-(3-Chloro-4-hydroxyphenyl)-3-(4-methoxyphenethyl)urea], in that order: 161.5 to 163.5 °C and 73.3 ± 4.33%. For the compound `O=C(Nc1ccc(O)c(Cl)c1)Nc1ccc2ncsc2c1` [Compound 76, 1-(Benzo[d]thiazol-6-yl)-3-(3-chloro-4-hydroxyphenyl)urea], the melting point lay in the range of 224 to 226 °C. Besides, the remaining activity at 25 µM in data set [1] is 43.8 ± 0.77%.
